In the supplement of paper PMC10307832:

What was measured:
Experiment in all cases: relative viability (nuclei count vs DMSO), 5 days (fraction); higher = more cells survive
HCC-44 = test system: HCC-44
Outline: (§1)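 Relative viability divides the nuclei count in treated wells by that in vehicle wells. Lung cancer cell lines were seeded in 1536-well plates, dosed by pin tool the next day, and fixed and stained after 5 days in one step with final 0.05% Triton X-100, 1% formaldehyde and 1 ug/ml Hoechst. Dosing was a single drug or a fixed anchor-drug dose plus five library-drug doses (not always all listed) in √10 steps, and values are medians of duplicate plates imaged at 4×.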

LCLC-103H = test system: LCLC-103H
Outline: as §1

HCC-15 = test system: HCC-15
Outline: as §1

NCI-H358 = test system: NCI-H358
Outline: as §1

EKVX = test system: EKVX
Outline: as §1

NCI-H2342 = test system: NCI-H2342
Outline: as §1

NCI-H2085 = test system: NCI-H2085
Outline: as §1

NCI-H1755 = test system: NCI-H1755
Outline: as §1

NCI-H838 = test system: NCI-H838
Outline: as §1

HCC-366 = test system: HCC-366
Outline: as §1

CAL-12T = test system: CAL-12T
Outline: as §1

LOU-NH91 = test system: LOU-NH91
Outline: as §1

NCI-H1975 = test system: NCI-H1975
Outline: as §1

BEN = test system: BEN
Outline: as §1

NCI-H2023 = test system: NCI-H2023
Outline: as §1

NCI-H1395 = test system: NCI-H1395
Outline: as §1

NCI-H1734 = test system: NCI-H1734
Outline: as §1

NCI-H441 = test system: NCI-H441
Outline: as §1

NCI-H1650 = test system: NCI-H1650
Outline: as §1

NCI-H460 = test system: NCI-H460
Outline: as §1

NCI-H1437 = test system: NCI-H1437
Outline: as §1

NCI-H1651 = test system: NCI-H1651
Outline: as §1

NCI-H1355 = test system: NCI-H1355
Outline: as §1

Compound: C[C@@H]1CN(CC(=O)Nc2ccc3c(c2)Cc2cccc(-c4cc(=O)cc(N5CCOCC5)o4)c2S3)C[C@H](C)O1 + O=C(CCCCCCC(=O)Nc1ccccc1)NO [Vorinostat] (partner 1 µM)
- relative viability (HCC-44; first compound 0.04 µM): 1.12
- relative viability (HCC-44; first compound 0.1265 µM): 1.01
- relative viability (HCC-44; first compound 0.4 µM): 1.08
- relative viability (HCC-44; first compound 4 µM): 0.966
- relative viability (LCLC-103H; first compound 0.04 µM): 0.743
- relative viability (LCLC-103H; first compound 0.1265 µM): 0.674
- relative viability (LCLC-103H; first compound 0.4 µM): 0.804
- relative viability (LCLC-103H; first compound 4 µM): 0.706
- relative viability (HCC-15; first compound 0.04 µM): 0.825
- relative viability (HCC-15; first compound 0.1265 µM): 0.769
- relative viability (HCC-15; first compound 0.4 µM): 0.729
- relative viability (HCC-15; first compound 4 µM): 0.663
- relative viability (NCI-H358; first compound 0.04 µM): 0.724
- relative viability (NCI-H358; first compound 0.1265 µM): 0.589
- relative viability (NCI-H358; first compound 0.4 µM): 0.687
- relative viability (NCI-H358; first compound 4 µM): 0.261
- relative viability (EKVX; first compound 0.04 µM): 0.753
- relative viability (EKVX; first compound 0.1265 µM): 0.666
- relative viability (EKVX; first compound 0.4 µM): 0.696
- relative viability (EKVX; first compound 4 µM): 0.661
- relative viability (NCI-H2342; first compound 0.04 µM): 0.609
- relative viability (NCI-H2342; first compound 0.1265 µM): 0.652
- relative viability (NCI-H2342; first compound 0.4 µM): 0.668
- relative viability (NCI-H2342; first compound 4 µM): 0.703
- relative viability (NCI-H2085; first compound 0.04 µM): 0.814
- relative viability (NCI-H2085; first compound 0.1265 µM): 0.782
- relative viability (NCI-H2085; first compound 0.4 µM): 0.69
- relative viability (NCI-H2085; first compound 4 µM): 0.667
- relative viability (NCI-H1755; first compound 0.04 µM): 0.759
- relative viability (NCI-H1755; first compound 0.1265 µM): 0.854
- relative viability (NCI-H1755; first compound 0.4 µM): 0.729
- relative viability (NCI-H1755; first compound 4 µM): 0.87
- relative viability (NCI-H838; first compound 0.04 µM): 0.751
- relative viability (NCI-H838; first compound 0.1265 µM): 0.646
- relative viability (NCI-H838; first compound 0.4 µM): 0.633
- relative viability (NCI-H838; first compound 4 µM): 0.535
- relative viability (HCC-366; first compound 0.04 µM): 0.314
- relative viability (HCC-366; first compound 0.1265 µM): 0.366
- relative viability (HCC-366; first compound 0.4 µM): 0.346
- relative viability (HCC-366; first compound 4 µM): 0.264
- relative viability (CAL-12T; first compound 0.04 µM): 0.719
- relative viability (CAL-12T; first compound 0.1265 µM): 0.623
- relative viability (CAL-12T; first compound 0.4 µM): 0.739
- relative viability (CAL-12T; first compound 4 µM): 0.377
- relative viability (LOU-NH91; first compound 0.04 µM): 0.611
- relative viability (LOU-NH91; first compound 0.1265 µM): 0.945
- relative viability (LOU-NH91; first compound 0.4 µM): 0.847
- relative viability (LOU-NH91; first compound 4 µM): 0.785
- relative viability (NCI-H1975; first compound 0.04 µM): 0.68
- relative viability (NCI-H1975; first compound 0.1265 µM): 0.717
- relative viability (NCI-H1975; first compound 0.4 µM): 0.61
- relative viability (NCI-H1975; first compound 4 µM): 0.536
- relative viability (BEN; first compound 0.04 µM): 0.56
- relative viability (BEN; first compound 0.1265 µM): 0.55
- relative viability (BEN; first compound 0.4 µM): 0.602
- relative viability (BEN; first compound 4 µM): 0.625
- relative viability (NCI-H2023; first compound 0.04 µM): 0.578
- relative viability (NCI-H2023; first compound 0.1265 µM): 0.59
- relative viability (NCI-H2023; first compound 0.4 µM): 0.581
- relative viability (NCI-H2023; first compound 4 µM): 0.505
- relative viability (NCI-H1395; first compound 0.1265 µM): 0.631
- relative viability (NCI-H1395; first compound 0.4 µM): 0.597
- relative viability (NCI-H1395; first compound 4 µM): 0.812
- relative viability (NCI-H1734; first compound 0.04 µM): 0.602
- relative viability (NCI-H1734; first compound 0.1265 µM): 0.768
- relative viability (NCI-H1734; first compound 0.4 µM): 0.812
- relative viability (NCI-H1734; first compound 4 µM): 0.901
- relative viability (NCI-H441; first compound 0.04 µM): 0.718
- relative viability (NCI-H441; first compound 0.1265 µM): 0.777
- relative viability (NCI-H441; first compound 0.4 µM): 0.849
- relative viability (NCI-H441; first compound 4 µM): 0.625
- relative viability (NCI-H1650; first compound 0.04 µM): 0.604
- relative viability (NCI-H1650; first compound 0.1265 µM): 0.488
- relative viability (NCI-H1650; first compound 0.4 µM): 0.588
- relative viability (NCI-H1650; first compound 4 µM): 0.517
- relative viability (NCI-H460; first compound 0.04 µM): 0.69
- relative viability (NCI-H460; first compound 0.1265 µM): 0.738
- relative viability (NCI-H460; first compound 0.4 µM): 0.704
- relative viability (NCI-H460; first compound 4 µM): 0.203
- relative viability (NCI-H1437; first compound 0.04 µM): 0.837
- relative viability (NCI-H1437; first compound 0.1265 µM): 0.768
- relative viability (NCI-H1437; first compound 0.4 µM): 0.819
- relative viability (NCI-H1437; first compound 4 µM): 0.609
- relative viability (NCI-H1651; first compound 0.04 µM): 0.541
- relative viability (NCI-H1651; first compound 0.1265 µM): 0.535
- relative viability (NCI-H1651; first compound 0.4 µM): 0.538
- relative viability (NCI-H1651; first compound 4 µM): 0.559
- relative viability (NCI-H1355; first compound 0.04 µM): 0.552
- relative viability (NCI-H1355; first compound 0.1265 µM): 0.713
- relative viability (NCI-H1355; first compound 0.4 µM): 0.566
- relative viability (NCI-H1355; first compound 4 µM): 0.621
